Results published in the supplement of paper PMC10307832.

What was measured:
Test in all cases: relative viability (nuclei count vs DMSO), 5 days (fraction); higher = more cells survive
[1] = compound: C1COCCN1C2=NC(=NC3=C2OC4=C3C=CC=N4)C5=CC(=CC=C5)NC(=O)C6=CN=C(C=C6)N
Outline: (§1)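 Hoechst staining, done together with fixation and permeabilisation, marked nuclei for 4× imaging and MetaXpress counting. This followed 5 days without medium change after lung cancer cell lines, kept overnight at 37 °C in 1536-well plates, were pinned with five library-drug doses (not always all listed) spaced by √10 on vehicle-anchored plates. Viability is the ratio of treated-well to vehicle-well nuclei, expressed as a median across plates. Plates passed only at control CV below 25% with at least one doubling.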

SGI-1776 = compound: CN1CCC(CNc2ccc3ncc(-c4cccc(OC(F)(F)F)c4)n3n2)CC1 [SGI-1776]
Outline: as §1

Entinostat = compound: Nc1ccccc1NC(=O)c1ccc(CNC(=O)OCc2cccnc2)cc1 [Entinostat]
Outline: as §1

SGI-1776 + Dasatinib = compound: CN1CCC(CNc2ccc3ncc(-c4cccc(OC(F)(F)F)c4)n3n2)CC1 [SGI-1776] + Cc1nc(Nc2ncc(C(=O)Nc3c(C)cccc3Cl)s2)cc(N2CCN(CCO)CC2)n1 [Dasatinib] (partner 0.075 µM)
Outline: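 Dosing by pin tool came one day after lung cancer cell lines were seeded in 1536-well plates, using either one drug or a fixed anchor-drug dose plus five library-drug doses (not always all listed) in √10 steps. After 5 days, nuclei were counted on 4× images. Relative viability is treated-well nuclei count divided by vehicle-well nuclei count, and values are medians of duplicate plates.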

Cell Line	relative viability ([1]; 0.02 µM)	relative viability ([1]; 0.06325 µM)	relative viability ([1]; 0.2 µM)	relative viability ([1]; 0.6325 µM)	relative viability ([1]; 2 µM)	relative viability (SGI-1776; 0.08 µM)	relative viability (SGI-1776; 0.8 µM)	relative viability (SGI-1776; 2.53 µM)	relative viability (SGI-1776; 8 µM)	relative viability (Entinostat; 0.02 µM)	relative viability (Entinostat; 0.06325 µM)	relative viability (Entinostat; 0.2 µM)	relative viability (Entinostat; 0.6325 µM)	relative viability (Entinostat; 2 µM)	relative viability (SGI-1776 + Dasatinib; first compound 0.08 µM)	relative viability (SGI-1776 + Dasatinib; first compound 0.8 µM)	relative viability (SGI-1776 + Dasatinib; first compound 2.53 µM)	relative viability (SGI-1776 + Dasatinib; first compound 8 µM)
ChaGo-K-1	0.949	1.07	0.897	1.01	0.837	1.06	1.01	0.949	0.855	1.04	0.934	1.11	0.961	0.881	0.652	0.647	0.561	0.416
EBC-1	0.911	1.16	0.936	0.964	0.576	1.04	0.952	0.971	0.67	1.06	1.02	0.865	0.306	0.165	–	–	–	–
EKVX	1.02	1.07	0.963	1.01	0.825	1.12	1.1	0.989	0.895	1.02	1.11	0.894	0.686	0.444	0.475	0.547	0.599	0.413
EMC-BAC-2	1.05	0.972	0.912	0.92	0.885	1.05	1.06	0.973	0.87	1.18	0.965	0.91	0.598	0.398	0.361	0.284	0.314	0.288
EPLC-272H	0.907	0.987	0.889	0.715	0.717	1.05	1.1	1.29	0.766	0.985	0.91	0.883	0.406	0.296	0.381	0.365	0.264	0.314
H3255	0.944	0.956	0.945	0.951	0.8	1.07	1.04	1.04	0.829	0.98	0.915	0.764	0.535	0.369	0.4	0.371	0.378	0.277
HARA	1.06	0.834	1.02	0.976	0.908	1.02	1.13	1	0.75	0.955	1.06	1.18	0.805	0.488	0.31	0.178	0.207	0.289
HCC-15	1.03	1.09	0.971	0.966	0.75	1.04	1.1	0.989	0.833	0.939	0.962	0.899	0.457	0.333	0.577	0.551	0.466	0.382
HCC-44	0.986	0.919	0.97	1.07	0.959	1.02	0.957	0.93	0.962	0.99	0.858	0.773	0.414	0.275	–	–	–	–
HCC-78	0.935	1.06	0.966	0.892	0.832	1.09	1.04	0.975	0.866	0.991	1.09	0.65	0.467	0.343	0.416	0.455	0.369	0.366
